The target of test [1] is T1, Cyclin-dependent kinase-like 5 (Homo sapiens) (UniProt O76039).
T1 sequence (whole entry): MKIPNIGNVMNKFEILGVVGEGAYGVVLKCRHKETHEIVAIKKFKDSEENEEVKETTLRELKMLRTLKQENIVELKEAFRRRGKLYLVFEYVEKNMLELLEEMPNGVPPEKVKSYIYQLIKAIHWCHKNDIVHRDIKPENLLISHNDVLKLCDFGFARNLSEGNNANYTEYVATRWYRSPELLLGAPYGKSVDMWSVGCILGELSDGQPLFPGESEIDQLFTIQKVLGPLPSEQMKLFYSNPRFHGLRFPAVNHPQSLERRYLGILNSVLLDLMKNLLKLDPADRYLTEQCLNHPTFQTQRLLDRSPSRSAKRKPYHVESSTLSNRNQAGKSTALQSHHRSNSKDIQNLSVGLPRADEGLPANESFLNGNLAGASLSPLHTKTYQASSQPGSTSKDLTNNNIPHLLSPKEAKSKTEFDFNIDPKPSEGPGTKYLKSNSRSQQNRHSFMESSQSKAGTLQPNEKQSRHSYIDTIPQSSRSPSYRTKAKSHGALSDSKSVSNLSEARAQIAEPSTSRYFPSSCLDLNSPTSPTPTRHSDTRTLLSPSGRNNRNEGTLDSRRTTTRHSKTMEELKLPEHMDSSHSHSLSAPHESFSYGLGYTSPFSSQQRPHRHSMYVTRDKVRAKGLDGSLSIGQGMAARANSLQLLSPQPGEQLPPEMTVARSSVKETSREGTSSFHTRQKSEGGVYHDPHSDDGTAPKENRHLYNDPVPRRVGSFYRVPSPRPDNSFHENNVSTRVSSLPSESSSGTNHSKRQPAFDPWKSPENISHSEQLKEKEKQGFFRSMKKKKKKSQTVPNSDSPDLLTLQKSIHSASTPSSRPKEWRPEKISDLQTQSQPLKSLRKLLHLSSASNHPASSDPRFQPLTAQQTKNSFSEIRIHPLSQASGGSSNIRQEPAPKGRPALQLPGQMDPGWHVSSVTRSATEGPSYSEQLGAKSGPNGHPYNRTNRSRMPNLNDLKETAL
Kind of test: Selectivity interaction (KinomeScan (DiscoverX)) EUB0000595a CDKL5. To be noted: at 10 µM.

The target in test [2] is Serine/threonine-protein kinase MRCK gamma (Homo sapiens) (UniProt Q6DT37). Kind of test: Selectivity interaction (KinomeScan (DiscoverX)) EUB0000666a CDC42BPG. Conditions: at 10 µM.
Chain of Serine/threonine-protein kinase MRCK gamma (Homo sapiens) (Q6DT37 whole entry): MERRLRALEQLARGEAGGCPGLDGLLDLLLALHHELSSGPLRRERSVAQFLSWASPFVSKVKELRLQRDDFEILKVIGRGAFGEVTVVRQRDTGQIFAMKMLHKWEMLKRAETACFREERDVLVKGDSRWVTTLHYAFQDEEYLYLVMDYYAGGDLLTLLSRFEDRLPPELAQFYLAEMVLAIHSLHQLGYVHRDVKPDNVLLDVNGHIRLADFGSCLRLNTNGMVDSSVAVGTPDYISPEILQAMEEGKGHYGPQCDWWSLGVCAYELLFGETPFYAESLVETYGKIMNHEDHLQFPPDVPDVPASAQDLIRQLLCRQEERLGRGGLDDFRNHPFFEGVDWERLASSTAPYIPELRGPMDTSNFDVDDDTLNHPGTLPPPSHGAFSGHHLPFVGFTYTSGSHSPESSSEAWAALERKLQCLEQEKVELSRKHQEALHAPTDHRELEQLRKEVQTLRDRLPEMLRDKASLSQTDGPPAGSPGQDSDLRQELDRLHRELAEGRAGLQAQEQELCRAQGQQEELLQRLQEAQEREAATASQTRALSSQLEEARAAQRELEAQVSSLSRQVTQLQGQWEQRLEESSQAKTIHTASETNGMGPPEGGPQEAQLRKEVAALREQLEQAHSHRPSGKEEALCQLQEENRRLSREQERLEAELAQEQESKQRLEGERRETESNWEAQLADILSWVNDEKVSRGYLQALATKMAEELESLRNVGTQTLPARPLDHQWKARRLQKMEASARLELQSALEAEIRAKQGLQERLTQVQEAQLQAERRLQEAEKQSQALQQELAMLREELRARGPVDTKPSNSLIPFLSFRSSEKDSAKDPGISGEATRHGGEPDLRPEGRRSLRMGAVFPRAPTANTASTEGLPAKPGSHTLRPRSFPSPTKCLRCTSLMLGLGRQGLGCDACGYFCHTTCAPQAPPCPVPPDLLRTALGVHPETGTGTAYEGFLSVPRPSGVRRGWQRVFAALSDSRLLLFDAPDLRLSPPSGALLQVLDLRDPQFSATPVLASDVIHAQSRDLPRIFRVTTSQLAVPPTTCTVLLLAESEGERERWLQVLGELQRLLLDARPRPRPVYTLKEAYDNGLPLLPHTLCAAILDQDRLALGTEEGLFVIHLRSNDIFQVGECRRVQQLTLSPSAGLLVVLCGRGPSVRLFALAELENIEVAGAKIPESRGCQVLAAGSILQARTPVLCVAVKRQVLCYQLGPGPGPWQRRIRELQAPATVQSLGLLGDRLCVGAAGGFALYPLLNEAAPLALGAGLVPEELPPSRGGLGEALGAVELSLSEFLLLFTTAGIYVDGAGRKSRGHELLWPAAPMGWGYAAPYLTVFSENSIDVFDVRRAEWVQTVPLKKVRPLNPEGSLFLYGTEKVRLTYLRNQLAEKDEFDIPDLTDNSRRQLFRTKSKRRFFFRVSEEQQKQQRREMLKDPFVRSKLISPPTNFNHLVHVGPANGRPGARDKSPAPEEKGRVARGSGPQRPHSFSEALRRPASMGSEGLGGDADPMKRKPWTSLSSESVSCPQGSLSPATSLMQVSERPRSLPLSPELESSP
In test [3] the target is T2, Homeodomain-interacting protein kinase 4 (Homo sapiens) (UniProt Q8NE63).
T2 sequence (whole entry): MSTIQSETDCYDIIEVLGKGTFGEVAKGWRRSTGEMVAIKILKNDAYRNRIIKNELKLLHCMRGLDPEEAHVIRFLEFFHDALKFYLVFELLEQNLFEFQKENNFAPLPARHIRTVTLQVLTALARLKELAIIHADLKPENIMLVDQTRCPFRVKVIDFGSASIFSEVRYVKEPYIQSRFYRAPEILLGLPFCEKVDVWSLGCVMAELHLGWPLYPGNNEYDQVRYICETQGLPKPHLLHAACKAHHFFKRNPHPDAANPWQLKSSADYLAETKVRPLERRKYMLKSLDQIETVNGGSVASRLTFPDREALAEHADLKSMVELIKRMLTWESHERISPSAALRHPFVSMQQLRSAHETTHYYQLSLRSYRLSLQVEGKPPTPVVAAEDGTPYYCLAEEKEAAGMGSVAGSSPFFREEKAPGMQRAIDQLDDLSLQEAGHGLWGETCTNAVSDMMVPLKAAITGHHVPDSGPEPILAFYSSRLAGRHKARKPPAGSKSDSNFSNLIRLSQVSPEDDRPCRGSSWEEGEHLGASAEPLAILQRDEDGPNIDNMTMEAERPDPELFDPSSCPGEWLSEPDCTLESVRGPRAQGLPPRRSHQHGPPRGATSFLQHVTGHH
Kind of test: Selectivity interaction (KinomeScan (DiscoverX)) EUB0000607a HIPK4. Conditions: at 10 µM.

In test [4] the target is Death-associated protein kinase 2 (Homo sapiens) (UniProt Q9UIK4). Briefly: Selectivity interaction (KinomeScan (DiscoverX)) EUB0000607a DAPK2. Conditions: at 10 µM.
The target in test [5] is Tyrosine-protein kinase Lyn (Homo sapiens, UniProt P07948). Briefly: Selectivity interaction (ActivX KiNativ screen (kinase selectivity in THP-1 cell lysates)) EUB0000639a LYN. Format: subcellular. Conditions: lysate, at 0.01 µM.
Chain of Tyrosine-protein kinase Lyn (P07948 2-512 limits assumed): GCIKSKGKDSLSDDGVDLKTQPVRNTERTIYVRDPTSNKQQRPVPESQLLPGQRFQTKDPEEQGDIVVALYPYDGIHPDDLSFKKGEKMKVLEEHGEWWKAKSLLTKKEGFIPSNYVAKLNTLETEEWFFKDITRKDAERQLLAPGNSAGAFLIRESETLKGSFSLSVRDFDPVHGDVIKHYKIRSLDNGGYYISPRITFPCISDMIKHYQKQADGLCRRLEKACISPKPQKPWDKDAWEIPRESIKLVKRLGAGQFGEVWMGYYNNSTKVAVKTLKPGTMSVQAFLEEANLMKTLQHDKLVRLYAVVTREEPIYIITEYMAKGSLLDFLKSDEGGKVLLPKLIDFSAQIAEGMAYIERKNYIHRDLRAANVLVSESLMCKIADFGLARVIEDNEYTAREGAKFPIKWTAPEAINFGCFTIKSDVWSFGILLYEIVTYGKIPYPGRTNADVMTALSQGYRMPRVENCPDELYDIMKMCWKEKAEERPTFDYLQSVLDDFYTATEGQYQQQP
The target in test [6] is Protein polybromo-1 (Homo sapiens) (UniProt Q86U86). Kind of test: Selectivity interaction (Bromodomain panel (DSF asssay)) EUB0000270b PBRM1.
Chain of Protein polybromo-1 (Homo sapiens) (Q86U86 whole entry): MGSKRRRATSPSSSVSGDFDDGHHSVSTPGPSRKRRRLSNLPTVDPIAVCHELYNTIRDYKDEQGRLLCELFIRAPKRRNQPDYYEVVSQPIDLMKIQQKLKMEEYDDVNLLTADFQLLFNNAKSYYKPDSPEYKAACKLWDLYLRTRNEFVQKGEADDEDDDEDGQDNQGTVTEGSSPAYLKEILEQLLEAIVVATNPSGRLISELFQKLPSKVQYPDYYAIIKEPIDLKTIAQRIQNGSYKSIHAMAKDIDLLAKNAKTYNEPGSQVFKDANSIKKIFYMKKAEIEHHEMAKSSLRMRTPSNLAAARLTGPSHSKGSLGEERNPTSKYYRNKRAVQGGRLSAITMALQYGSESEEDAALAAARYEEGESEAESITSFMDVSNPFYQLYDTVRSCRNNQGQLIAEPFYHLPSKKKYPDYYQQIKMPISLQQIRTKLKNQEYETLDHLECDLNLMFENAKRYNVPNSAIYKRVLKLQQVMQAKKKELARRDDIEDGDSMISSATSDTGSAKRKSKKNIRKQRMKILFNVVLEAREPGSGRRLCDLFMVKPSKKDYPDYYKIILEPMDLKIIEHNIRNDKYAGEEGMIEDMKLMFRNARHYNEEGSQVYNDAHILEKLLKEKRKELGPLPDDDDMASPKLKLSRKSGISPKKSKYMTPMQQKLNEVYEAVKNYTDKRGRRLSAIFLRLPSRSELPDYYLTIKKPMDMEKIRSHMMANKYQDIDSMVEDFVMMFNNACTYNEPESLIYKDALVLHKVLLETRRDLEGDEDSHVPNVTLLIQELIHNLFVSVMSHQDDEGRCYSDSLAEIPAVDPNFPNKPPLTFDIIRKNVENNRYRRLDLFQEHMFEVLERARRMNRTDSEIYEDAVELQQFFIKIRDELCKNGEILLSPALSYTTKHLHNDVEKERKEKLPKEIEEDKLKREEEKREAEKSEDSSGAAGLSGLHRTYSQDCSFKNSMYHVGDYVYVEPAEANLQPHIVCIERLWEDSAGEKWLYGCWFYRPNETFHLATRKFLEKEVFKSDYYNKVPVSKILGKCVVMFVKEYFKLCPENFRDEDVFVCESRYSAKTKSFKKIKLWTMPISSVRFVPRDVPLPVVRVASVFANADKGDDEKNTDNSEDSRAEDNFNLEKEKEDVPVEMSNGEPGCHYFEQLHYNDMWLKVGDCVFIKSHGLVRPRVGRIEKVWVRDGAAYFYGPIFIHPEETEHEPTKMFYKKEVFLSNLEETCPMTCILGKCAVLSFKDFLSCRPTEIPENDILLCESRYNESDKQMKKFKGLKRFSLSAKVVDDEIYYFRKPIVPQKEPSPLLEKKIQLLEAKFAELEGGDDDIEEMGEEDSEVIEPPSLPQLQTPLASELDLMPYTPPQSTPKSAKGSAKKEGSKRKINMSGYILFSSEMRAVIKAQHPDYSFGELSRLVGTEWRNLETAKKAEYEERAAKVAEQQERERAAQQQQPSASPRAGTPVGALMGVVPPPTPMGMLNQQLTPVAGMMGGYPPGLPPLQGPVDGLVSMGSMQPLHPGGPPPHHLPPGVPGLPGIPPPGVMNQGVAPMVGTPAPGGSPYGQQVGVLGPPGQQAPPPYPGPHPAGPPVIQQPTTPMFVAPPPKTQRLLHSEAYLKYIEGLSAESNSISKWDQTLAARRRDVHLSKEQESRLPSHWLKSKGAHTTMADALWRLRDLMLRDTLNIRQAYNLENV
Test [7] addresses Rho-associated protein kinase 1 (Homo sapiens) (UniProt Q13464). Briefly: Selectivity interaction (KinomeScan (DiscoverX)) EUB0000618a ROCK1. To be noted: at 10 µM.
Test [8] addresses Wee1-like protein kinase 2 (Homo sapiens) (UniProt P0C1S8). Briefly: Selectivity interaction (KinomeScan (DiscoverX)) EUB0000618a WEE2. Conditions: at 10 µM.
In test [9] the target is Ribosomal protein S6 kinase alpha-4 (Homo sapiens) (UniProt O75676). Kind of test: Selectivity interaction (Kinase panel (KiNativ target engagement assay in Jurkat cells)) EUB0001635a RPS6KA4. Format: cell-based. To be noted: Selectivity number of off-targets 0.0, Selectivity number of targets 233.0, Source Knowledge https://www.sciencedirect.com/science/article/pii/S2451945619300674?via%3Dihub, at 1 µM.

Chain of Rho-associated protein kinase 1 (Homo sapiens) (Q13464 2-1354 limits assumed): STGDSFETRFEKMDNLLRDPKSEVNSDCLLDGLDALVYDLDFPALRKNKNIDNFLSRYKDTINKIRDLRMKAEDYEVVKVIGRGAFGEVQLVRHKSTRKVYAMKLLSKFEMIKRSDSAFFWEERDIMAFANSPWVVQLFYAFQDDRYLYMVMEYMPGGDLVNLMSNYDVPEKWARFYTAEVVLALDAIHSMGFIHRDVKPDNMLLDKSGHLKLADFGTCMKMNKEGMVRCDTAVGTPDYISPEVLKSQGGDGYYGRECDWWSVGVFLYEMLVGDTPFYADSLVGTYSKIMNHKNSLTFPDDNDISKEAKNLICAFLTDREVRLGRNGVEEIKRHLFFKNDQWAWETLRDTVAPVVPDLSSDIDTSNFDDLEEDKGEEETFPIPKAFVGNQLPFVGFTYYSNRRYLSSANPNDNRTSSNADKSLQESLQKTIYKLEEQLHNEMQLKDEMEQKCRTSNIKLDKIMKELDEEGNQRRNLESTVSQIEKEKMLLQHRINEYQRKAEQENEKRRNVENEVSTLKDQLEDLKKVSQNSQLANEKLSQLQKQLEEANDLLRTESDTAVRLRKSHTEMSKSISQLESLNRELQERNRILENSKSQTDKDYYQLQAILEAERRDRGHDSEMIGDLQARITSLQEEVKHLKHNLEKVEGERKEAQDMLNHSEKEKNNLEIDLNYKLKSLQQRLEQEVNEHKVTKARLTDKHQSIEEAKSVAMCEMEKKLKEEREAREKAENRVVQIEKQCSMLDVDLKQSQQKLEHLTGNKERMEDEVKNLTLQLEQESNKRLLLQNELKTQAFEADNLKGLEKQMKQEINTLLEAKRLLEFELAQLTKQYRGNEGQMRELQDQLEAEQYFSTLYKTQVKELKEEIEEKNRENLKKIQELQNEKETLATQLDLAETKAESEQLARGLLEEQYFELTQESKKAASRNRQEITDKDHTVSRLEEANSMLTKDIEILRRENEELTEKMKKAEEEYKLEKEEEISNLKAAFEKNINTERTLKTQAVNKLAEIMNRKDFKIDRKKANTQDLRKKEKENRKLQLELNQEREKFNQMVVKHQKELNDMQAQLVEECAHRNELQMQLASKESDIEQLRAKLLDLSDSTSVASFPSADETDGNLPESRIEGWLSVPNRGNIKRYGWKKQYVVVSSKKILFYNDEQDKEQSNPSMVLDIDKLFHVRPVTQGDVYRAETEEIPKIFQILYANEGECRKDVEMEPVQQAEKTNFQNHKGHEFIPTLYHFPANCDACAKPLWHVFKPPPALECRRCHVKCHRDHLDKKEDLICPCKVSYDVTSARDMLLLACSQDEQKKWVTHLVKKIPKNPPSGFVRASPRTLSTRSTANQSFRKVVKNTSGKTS

As for `COCC(=O)NC/C=C/c1ccc2ncnc(Nc3ccc(Oc4ccc(C)nc4)c(C)c3)c2c1` [CP-724714], the % of control in [1] amounted to 100%.

`O=C(NOC[C@H](O)CO)c1ccc(F)c(F)c1Nc1ccc(I)cc1F` came in with a % of control in test [2] of 85%.

As for `CNC(=O)Nc1ccc(-c2nc(N3CC4CCC(C3)O4)c3cnn(C4CCC5(CC4)OCCO5)c3n2)cc1`, the % of control in test [3] and in [4] was 100% in each case.

In test [5], `CC[C@@H]1[C@H](F)C(=O)N[C@@H]1COc1nccc2cc(C(N)=O)c(OC)cc12` [ZIMLOVISERTIB] registered a % of inhibition of 5.3%.

Take `Cc1cc(CN)cc(C)c1-c1ncn(C)c1-c1cncn1C`: in test [6], the dTM is -1.91 K.

On to `O[C@H]1CC[C@H](Nc2ncc3nc(Nc4c(F)cc(F)cc4F)n([C@H]4CCOC4)c3n2)CC1`, for which the % of control is 91% in [7] and 98% in test [8].

On to `C=CC(=O)Nc1ccc(C(=O)Nc2[nH]nc3c2CN(C(=O)N[C@H](CN(C)C)c2ccccc2)C3(C)C)cc1`, for which, in test [9], the % of engagement was -6.3%.
